Assay results: patent US20170000132A1, “BENZOXABOROLE FUNGICIDES” (SYNGENTA PARTICIPATIONS AG, priority 2013, published 2017)

Key:
Puccinia recondita = Puccinia recondita / wheat plants, spray chamber; assay type: in vivo; details: 20 ppm; 1 week old wheat plants cv. Arina, sprayed 2 days before inoculation, assessed 10 days after inoculation
Method: Fungicidal Activity Against Puccinia recondita/Wheat 1 week old wheat plants cv. Arina were treated with the formulated test compound in a spray chamber. Two days after application wheat plants were inoculated by spraying a spore suspension (1×105 uredospores/ml) on the test plants. After an incubation period of 1 day at […] and 95% r. h. plants were kept for 9 days at […] and 60% r.h. in a greenhouse. The disease incidence was assessed 10 days after inoculation.

[1] = test system: Giberella zeae (Fusarium graminearum); assay type: in vivo; details: 200 ppm; wheat spikelets, preventative, assessed 6 dpi; compared to untreated control
[2] = test system: Monographella nivale (Microdochium nivale); assay: Monographella nivale / wheat pouch test with infected seeds; assay type: in vivo, M. nivale; details: 60 ppm; infected wheat seeds cv. Arina in pouch, 4 weeks after sowing; compared to untreated control
Method: Fungicidal Activity Against Monographella nivale (Microdochium nivale)/Wheat
Formulated test compound is applied into a pouch which was previously equipped with a filter paper. After the application wheat seeds cv. Arina infected with M. nivale are sown into the upper fault of the filter paper. The pouches are then incubated for 7 days in the dark at 7° C./5° C. (day/night) and 80% r. h. After 1 week light is supplied at the same temperature cycle. Another two weeks later plants were transferred to 17° C./16° C. (day/night) and 80% r. H. The disease incidence is assessed 4 weeks after sowing.

Phytophthora infestans = assay type: in vivo; details: 200 ppm; tomato leaf disks, preventative; compared to untreated control

With OB1OCc2cc(Cl)c(C=NOCC=C(Cl)Cl)cc21 (single isomer, unassigned) [Compound 50] the “disease control (disease incidence)” value (Puccinia recondita) was “at least 80%”.
For COC(=O)Cc1ccccc1CON=Cc1cc2c(cc1Cl)COB2O (single isomer, unassigned) [Compound 59], the disease control [1] was “at least 80%”.
In the case of CCOC(=O)CNN=Cc1cc2c(cc1Cl)COB2O (single isomer, unassigned) [Compound 70], the “disease control (disease incidence)” value [2] is reported as “at least 80%”.
In the case of CNC(=S)NN=Cc1cc(Cl)cc2c1B(O)OC2 (single isomer, unassigned) [Compound 224], the disease control (Phytophthora infestans) is reported as “at least 80%”.
